Assay results published in patent publication US20240398783A1, “Compounds and Pharmaceutical Compositions Comprising Inhibitors of Amyloid Peptide Interactions with Glycosaminoglycans, Methods of Treatment and Use Thereof” (Gismo Therapeutics, Inc., priority 2021, published 2024).
Where a name gives a salt, the structure may show the parent alone. Read-outs that look alike come from different tables or passages of the source.

Experiments:
[1] = target: TDP-43 binding to heparin (HS-GAG) (Homo sapiens, UniProt Q13148); assay: Inhibition of TDP-43 binding to immobilized heparin-BSA (ELISA); parameters: species or system porcine; conditions: for inhibition at 30 µM: read-out: TDP43/Heparin Activity (% inhibition class); for IC50: TDP-43, heparin-BSA
Experimental: (§1) Porcine intestinal mucosa heparin conjugated to Bovine Serum Albumin (Heparin-BSA) was prepared as described (Najjam, S. et al. 1997, Cytokine 12, 1013-1022). Heparin is a sulfated HS-GAG and is commonly used as a HS-GAG in biochemical and binding assays (Lindahl, U. and Kjellen, L. (2013) ibid). Heparin-BSA at 0.01 mg/ml in Phosphate Buffered Saline (PBS; pH 7.4) was added to a 96 well polystyrene ELISA plate (NUNC Cat. No. 449824; 100 μl per well) and incubated Over Night (ON) at 4 degrees Celsius. For negative controls, ELISA plates were coated with BSA instead of Heparin-BSA, using the same procedure. Following the incubation, the plate was washed consecutively, by immersion, with de-ionized water and PBS (pH 7.4). The ELISA plate was then blocked with nonfat milk (2%, 200 μl per well) for 2 hours at Room Temperature (RT) with gentle shaking. Following blocking, the plate was washed with de-ionized water then PBS (pH 7.4). GBAPs were dissolved and diluted in PBS (pH 6.5, supplemented with 0.1% BSA) at desired concentrations, added to the ELISA plates containing immobilized Heparin-BSA (100 μl per well) and incubated for 2 hours at RT with gentle shaking. Following incubation, the plate was washed with de-ionized water and three times with PBS (pH 6.5) plus Tween. Bound GBAP was detected by a monoclonal antibody specific for that GBAP, followed by incubation with secondary antibody conjugated to horseradish peroxidase (HRP). Antibody was diluted in PBS (pH 6.5 supplemented with 1% BSA). Following each incubation with antibody, the plate was washed with de-ionized water and three times with PBS (pH 6.5) wash buffer containing 0.1% Tween. The peroxidase substrate chromogen, TMB (Dako Cat. No. S1599) was added (100 μl per well) to the ELISA plate and incubated at room temperature. After 5 minutes ELISA Stop Solution (hydrochloric acid 1N, sulfuric acid 3N) was added (100 μl per well) to stop the peroxidase catalyzed colorimetric reaction. The Optical Density of the samples was measured at 450 nm using an ELISA plate reader (BioTek Synergy H1). Following color development, the % inhibition compared to control (BSA-coated plates) was determined. IC-50s were calculated using GraphPad Prism software.
The assay was performed as described in Example 43, with the following modifications.
Following to coating the plates with Heparin-BSA, plates were washed as described. The compounds were dissolved in DMSO at 10 mM final concentration and further diluted prior to assay. DMSO concentration in the screening well was up to 2%. Individual compounds were co-incubated with TDP-43 on plates containing immobilized heparin. TDP43 from R&D System (Cat. No. AP-190) was quickly frozen and kept in aliquots at −80 degrees Celsius. TDP-43 dissolved in PBS (pH 6.5, supplemented with BSA, 0.1%) was added to the ELISA plate (100 μl per well) and incubated for 2 hours at RT with gentle shaking. Following the incubation, the plate was washed with de-ionized water and three times with PBS (pH 6.5) plus Tween. Bound TDP-43 was detected by Anti-TDP43 Monoclonal Antibody (R&D System Cat. No. MAB7778), followed by secondary anti-IgG antibody conjugated to HRP (R&D System, Cat. No. HAF007). Following to color development with TMB, as described in Example 43, the Optical Density of the samples was measured at 450 nm using an ELISA plate reader. Following color development, the % inhibition compared to control (no compound, DMSO control) for every compound was determined.
As described in Example 43, Heparin in the form of Heparin-BSA conjugate is used as a source of HS-GAG. For each compound IC-50 value in TDP-43—heparin-BSA binding assay is shown in μM (micromolar). In some cases IC-50 was not measured and % inhibition at 30 μM compound concentration is shown instead. […] All assays were done on 96-well plates in duplicates and experiments were repeated at least twice. […]

[2] = target: Alpha-Synuclein Protofibril binding to heparin (HS-GAG) (Homo sapiens, UniProt P37840); assay: Inhibition of alpha-synuclein protofibril binding to immobilized heparin-BSA (ELISA); parameters: species or system porcine; conditions: for inhibition at 30 µM: read-out: Alpha-Synuclein/Heparin Activity (% inhibition class)
Experimental: as §1
The assay was performed as described in Example 43, with the following modifications. Following to coating the plates with Heparin-BSA, plates were washed as described. The compounds were dissolved in DMSO at 10 mM final concentration and further diluted prior to assay. DMSO concentration in the screening well was up to […]. Individual compounds were co-incubated with alpha-synuclein on plates containing immobilized heparin. Alpha-synuclein purchased from rPeptide (Cat. No. S1001) was used to prepare protofibrils as described in Ihse et al., 2017. Alpha-synuclein was dissolved in PBS (pH7.4) to a concentration of 140 μM (˜2 mg/ml), and incubated for 7 days at 37° C. with rotary agitation (400 rpm). Resulting fibrils were sonicated for 10 minutes in ultrasonic water bath, quickly frozen and kept in aliquots at −80 degrees Celsius. Protofibrillar alpha-synuclein diluted in PBS (pH 6.5, supplemented with BSA, 0.1%) was added to the ELISA plate (100 μl per well) and incubated for 2 hours at RT with gentle shaking. Following the incubation, the plate was washed with de-ionized water and three times with PBS (pH 6.5) plus Tween. Bound Alpha-synuclein was detected by Anti-Alpha-synuclein Monoclonal Antibody 211 (Santa Cruz Cat. No. sc-12767), followed by secondary anti-IgG antibody conjugated to HRP (R&D System, Cat. No. HAF007). Following to color development with TMB, as described in Example 43, the Optical Density of the samples was measured at 450 nm using an ELISA plate reader. Following color development, the % inhibition compared to control (no compound, DMSO control) for every compound was determined.
An example of inhibition curve is shown in FIG. 1 for Inhibitor Compounds 22 and 24. […]

[3] = Alpha-Synuclein/Heparin Activity (IC-50), alpha-synuclein protofibrils, heparin-BSA
[4] = 30 μM compound, alpha-synuclein protofibrils, heparin-BSA
[5] = read-out: TDP43/Heparin Activity (IC-50)
[6] = alpha-synuclein protofibrils, heparin-BSA, read-out: Alpha-Synuclein/Heparin Activity (IC-50)

TDP-43 binding to heparin (HS-GAG), sequence (Q13148 whole entry): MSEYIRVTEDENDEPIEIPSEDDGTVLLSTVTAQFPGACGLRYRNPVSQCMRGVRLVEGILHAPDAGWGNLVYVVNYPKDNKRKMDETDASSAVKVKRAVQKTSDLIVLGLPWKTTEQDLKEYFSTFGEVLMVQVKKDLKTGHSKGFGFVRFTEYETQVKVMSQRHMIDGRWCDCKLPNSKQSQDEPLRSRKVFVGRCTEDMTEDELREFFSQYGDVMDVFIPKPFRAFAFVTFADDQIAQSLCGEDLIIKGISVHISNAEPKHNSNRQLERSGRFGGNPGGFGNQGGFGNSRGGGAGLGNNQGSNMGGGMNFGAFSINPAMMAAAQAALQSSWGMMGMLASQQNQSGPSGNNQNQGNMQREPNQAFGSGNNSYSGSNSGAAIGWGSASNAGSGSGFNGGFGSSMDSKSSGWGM

| SMILES | inhibition at 30 µM [1] | inhibition at 30 µM [2] | IC50 ([1]; TDP43/Heparin Activity (IC-50)) | IC50 [2, 3] | also measured |
| --- | --- | --- | --- | --- | --- |
| Cc1cn(-c2ccc(Nc3cncc4cc(Cl)ccc34)cn2)c(C)n1 [Compound 37, 7-chloro-N-(6-(2,4-dimethyl-1H-imidazol-1-yl)pyridin-3-yl)isoquinolin-4-amine phosphoric acid salt] | < 30% | < 30% | – | – | – |
| CC(=NNc1ccnc2cc(Cl)ccc12)c1ccc(-n2ccnc2)cc1 [Compound 36, 4-(2-(1-(4-(1H-imidazol-1-yl)phenyl)ethylidene)hydrazineyl)-7-chloroquinoline phosphate] | – | – | 47.9 µM | 4.17 µM | – |
| C[n+]1ccn(-c2ccc(Nc3ncnc4cc(Cl)ccc34)cn2)c1 [Compound 43, 1-(5-((7-chloroquinazolin-4-yl)amino)pyridin-2-yl)-3-methyl-1H-imidazol-3-ium iodide phosphoric acid salt] | < 30% | < 30% | – | – | – |
| C[N+](C)(C)Cc1ccc(/C=N\Nc2ccnc3ccc(Cl)cc23)cc1 [Compound 4, (Z)-1-(4-((2-(6-chloroquinolin-4-yl)hydrazineylidene)methyl)phenyl)—N,N,N-trimethylmethanaminium iodide] | < 30% | – | – | – | inhibition at 30 µM [2, 4]: > 30% |
| CC(=NNc1ccnc2cc(Cl)ccc12)c1ccc(-n2cc[n+](C)c2)nc1 [Compound 23, 1-(5-(1-(2-(7-chloroquinolin-4-yl)hydrazineylidene)ethyl)pyridin-2-yl)-3-methyl-1H-imidazol-3-ium iodide] | < 30% | < 30% | – | – | – |
| Cc1ncn(-c2ccc(Nc3ncnc4cc(Cl)ccc34)cn2)c1C [Compound 25, 7-chloro-N-(6-(4,5-dimethyl-1H-imidazol-1-yl)pyridin-3-yl)quinazolin-4-amine] | – | – | 2.45 µM | 3.83 µM | – |
| C(=N\Nc1ccc2c3c(cccc13)CC2)/c1ccc(-n2ccnc2)cc1 [Compound 8, (E)-1-(4-((2-(1,2-dihydroacenaphthylen-5-yl)hydrazineylidene)methyl)phenyl)-1H-imidazole] | – | < 30% | 10.8 µM | – | – |
| C/C(=N\Nc1ncnc2cc(Cl)ccc12)c1cccc(N2CCN(C)CC2)c1 [Compound 30, 7-chloro-4-(2-(1-(3-(4-methylpiperazin-1-yl)phenyl)ethylidene)hydrazineyl)quinazoline] | – | > 30% | 12.2 µM | – | – |
| Clc1ccc2c(Nc3ccc(-n4cncn4)nc3)ccnc2c1 [Compound 44, N-(6-(1H-1,2,4-triazol-1-yl)pyridin-3-yl)-7-chloroquinolin-4-amine] | – | – | 6.54 µM | 19.2 µM | – |
| COc1ccc2c(NN=Cc3ccc(-n4ccnc4)c(C)c3)ccnc2c1 [Compound 12, 4-(2-(4-(1H-imidazol-1-yl)-3-methylbenzylidene)hydrazineyl)-7-methoxyquinoline] | < 30% | < 30% | – | – | – |
| C/C(=N\Nc1ncnc2cc(Cl)ccc12)c1ccc(-n2cc[n+](C)c2)nc1 [Compound 17, (E)-1-(5-(1-(2-(7-chloroquinazolin-4-yl)hydrazineylidene)ethyl)pyridin-2-yl)-3-methyl-1H-imidazol-3-ium iodide phosphoric acid salt] | – | – | 33.6 µM | 13.5 µM | – |
| Cc1ncn(-c2ncc(Nc3ncnc4cc(Cl)ccc34)cc2O)c1C [Compound 40, 5-((7-chloroquinazolin-4-yl)amino)-2-(4,5-dimethyl-1H-imidazol-1-yl)pyridin-3-ol phosphoric acid salt] | – | < 30% | 7.42 µM | – | – |
| C/C(=N\Nc1nncc2cc(Cl)ccc12)c1ccc(-n2cc(C)nc2C)nc1 [Compound 24, (E)-6-chloro-1-(2-(1-(6-(2,4-dimethyl-1H-imidazol-1-yl)pyridin-3-yl)ethylidene)hydrazineyl)phthalazine] | – | – | – | – | IC50 [1, 5]: 0.89 µM; IC50 [2, 6]: 6.44 µM |
| C/C(=N\Nc1ncnc2cc(F)ccc12)c1ccc(-n2cnc(C)c2C)nc1 [Compound 21, (E)-4-(2-(1-(6-(4,5-dimethyl-1H-imidazol-1-yl)pyridin-3-yl)ethylidene)hydrazineyl)-7-fluoroquinazoline] | – | – | – | – | IC50 [1, 5]: 4.6 µM; IC50 [2, 6]: 2.06 µM |
| C/C(=N\Nc1ncnc2ccccc12)c1ccc(-n2cc(C)nc2C)nc1 [Compound 19, (E)-4-(2-(1-(6-(2,4-dimethyl-1H-imidazol-1-yl)pyridin-3-yl)ethylidene)hydrazineyl)quinazoline] | – | < 30% | 36.8 µM | – | – |
| Cc1ncn(-c2ccc(/C=N\Nc3ncnc4cc(Cl)ccc34)cn2)c1C [Compound 15, 7-chloro-4-(2-((6-(4,5-dimethyl-1H-imidazol-1-yl)pyridin-3-yl)methylene)hydrazineyl)quinazoline hydrochloride] | – | – | 3.06 µM | 5.22 µM | – |
| C/C(=N\Nc1ncnc2cc(Cl)ccc12)c1ccc(-n2cc(C)nc2C)nc1 [Compound 27, (E)-7-chloro-4-(2-(1-(6-(2,4-dimethyl-1H-imidazol-1-yl)pyridin-3-yl)ethylidene)hydrazineyl)quinazoline hydrochloride] | – | – | – | – | IC50 [1, 5]: 2.18 µM; IC50 [2, 6]: 1.95 µM |
| Clc1ccc2c(N/N=C/c3ccc(-n4ccnc4)cc3)ccnc2c1 [Compound 38, 4-(2-(4-(1H-imidazol-1-yl)benzylidene)hydrazineyl)-7-chloroquinoline dihydrochloride] | – | – | 5.73 µM | 1.88 µM | – |
| Fc1ccc2c(N/N=C/c3ccc(-n4ccnc4)cc3)ccnc2c1 [Compound 5, (E)-4-(2-(4-(1H-imidazol-1-yl)benzylidene)hydrazinyl)-7-fluoroquinoline] | – | < 30% | 71.4 µM | – | – |
| Fc1ccc2c(N/N=C/c3ccc(CN4CCOCC4)cc3)ccnc2c1 [Compound 6, (E)-4-(4-((2-(7-fluoroquinolin-4-yl)hydrazono)methyl)benzyl)morpholine] | < 30% | – | – | – | inhibition at 30 µM [2, 4]: > 30% |
